{"source": "patent US7034047B2", "about": "“Triazole derivative” (Astellas Pharma, Inc., priority 2000, dated 2006)", "key": {"[1]": {"tested_on": "ECS-induced learning disability", "assay": "Electric convulsion shock (ECS)-induced learning disability (mouse passive avoidance test)", "type": "in vivo, male ddY mouse", "details": "dosed intraperitoneally; step-through latency, p<0.05", "from_the_text": "4. Electric Convulsion Shock (ECS)—Induced Learning Disability (Mouse Passive Avoidance Test)\nWith reference to the previous report (Eur J Pharmacology, 321; 273–278, 1997), assessment was done as follows. • Animal: male ddY mouse (Nippon SLC; age 5 weeks at training) was used. 16 animals were used per one group. <Experimental Procedures> Preparation of Chemical Agents A test compound for oral administration was suspended in aqueous 0.5% methyl cellulose solution, and for intraperitoneal administration was suspended in solution dissolved 0.5% of methyl cellulose solution in saline The dose administered was 10 ml per 1 kg·body weight. As a placebo of the test compound, 10 ml of aqueous 0.5% methyl cellulose solution for oral administration and 10 ml of 0.5% methyl cellulose solution in saline for intraperitoneal administration (herein referred to as vehicle) was administrated. […] Test (24 Hours after the Training) • (1) The animals were left in the experimental room for one hour or longer. • (2) After the mice were placed in the bright room and left for 30 seconds, the guillotine door was opened. • (3) The time (step-through latency) required for the mice to cross the sensor of the dark room from the opening of the guillotine door was counted. […] A significance was determined at p<0.05."}, "[2]": {"tested_on": "(+)-HA966-induced enhancement of activity", "assay": "(+)-HA966-induced enhancement of activity in mouse", "type": "in vivo, male ICR mouse", "details": "orally given at 10 mg/kg; below 50% judged to have the effect", "from_the_text": "Compound 1: • 3-(biphenyl-4-yl)-4-(2-methoxyphenyl)-5-methyl-4H-1,2,4-triazole (Japanese Patent unexamined uplication No. 2000-63363; Example 33) Compound 2: • 3-(biphenyl-4-yl)-5-(furan-2-yl)-4-phenyl-4H-1,2,4-triazole (LTPBP42 CD-ROM catalog 1996 of LaboTest Co. (Freiberg, Germany)) Compound 3: • 3-(biphenyl-4-yl)-5-ethyl-4-(2-methoxyphenyl)-4H-1,2,4-triazole (Japanese Patent unexamined publication No. 2000-63363; Example 23) 2. Experimental Method of (+)-HA966—Induced Enhancement of Activity in Mouse\nThe method reported previously (J. Neural Transm., 97: 175–185, 1994) was used for carrying out the experiment with modification. • Animal: male ICR mouse (Nippon SLC; age 5 to 7 weeks) • Chemical drug: reserpine (Apoplon Injection of 1 mg/ml; manufactured by Daiichi Pharmaceuticals Co., Ltd.), (+)-HA966 (Proc. Nat. Acad. Sci. U.S.A., 87, 347–351, 1990), α-methyl-para-tyrosine methyl ester (Sigma,Inc.). • Experimental apparatus: Supermex (Muromachi Machine) Experimental Method • (1) Pharmaceutical drug-treated groups were defined as follows. […] The effect was determined as follows. […] It was calculated by following formula. […]"}}, "data": [{"smiles": "CC(C)c1nnc(-c2ccc(-c3ccccc3)cc2)n1-c1ccccc1F", "note": "[Production Example 1, 3-Biphenyl-4-yl-4-(2-fluorophenyl)-5-isopropyl-4H-1,2,4-triazole]", "values": [{"measurement": "minimum effective dose", "setting": "[1]", "result": 10, "unit": "mg/kg"}, {"measurement": "normalized activity ((+)-HA966-induced enhancement = 100%)", "setting": "[2]", "result": 43, "unit": "%"}]}]}
